Reference: patent publication US20170253581A1, “SUBSTITUTED HETEROCYCLES AS c-MYC TARGETING AGENTS” (Northwestern University, priority 2016, published 2017)

Molecular target: Myc/Max binding to DNA (Homo sapiens, UniProt P01106)
Assay: Electrophoretic mobility shift assay (EMSA) of Myc/Max binding to DNA
Type: biochemical
Details: for remaining activity at 200 µM: read-out: Bound DNA (%) (200uM); for remaining activity at 100 µM: 100 uM test compound, read-out: Bound DNA (%) (100uM)
Description: We also tested our best hit compound Min9 (NUCC-0176234) and newly synthesized analogs for effects of these compounds on Myc/Max binding to DNA in electrophoretic mobility shift assays (EMSAs). (See FIG. 5a and FIG. 5b). We expected the active compounds to impair Myc/Max binding to DNA. Several strucutural analogs of Min9 were tested over multiple doses for inhibiting Myc-DNA binding and we observed a dose-dependent inhibition. (See FIG. 5c).
Additional compounds were synthesized and tested in the EMSA assay at concentrations of 200 μM, 100 μM, and 50 μM.

Sequence of Myc/Max binding to DNA (P01106 whole entry): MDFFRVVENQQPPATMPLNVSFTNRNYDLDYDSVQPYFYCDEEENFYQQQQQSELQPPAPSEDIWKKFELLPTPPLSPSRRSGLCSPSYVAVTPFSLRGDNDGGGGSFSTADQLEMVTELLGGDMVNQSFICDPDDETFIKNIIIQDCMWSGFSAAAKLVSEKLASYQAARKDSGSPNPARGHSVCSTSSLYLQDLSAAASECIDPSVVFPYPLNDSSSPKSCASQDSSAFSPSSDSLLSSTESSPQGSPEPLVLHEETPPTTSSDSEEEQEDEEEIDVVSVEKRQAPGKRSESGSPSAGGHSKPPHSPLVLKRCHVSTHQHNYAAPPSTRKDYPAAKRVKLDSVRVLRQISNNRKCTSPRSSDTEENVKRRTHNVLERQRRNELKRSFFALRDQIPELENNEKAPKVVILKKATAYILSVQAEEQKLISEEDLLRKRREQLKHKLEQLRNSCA

CCc1ccc(Oc2c[nH]nc2-c2ccc(OCc3ccc(Cl)cc3)cc2O)cc1 [NUCC-0176243]
remaining activity at 200 µM (EMSA, 200 uM test compound): 19%

CCc1ccc(Oc2c[nH]nc2-c2ccc(OCc3ccc(C(F)(F)F)cc3)cc2O)cc1 [NUCC-0176244]
remaining activity at 200 µM (EMSA, 200 uM test compound): 20%

CCc1ccc(Oc2c(-c3ccc(OCCc4cccc(C(F)(F)F)c4)cc3O)n[nH]c2C(F)(F)F)cc1 [NUCC-0176245]
IC50: 95 µM
remaining activity at 100 µM (EMSA): 36%
remaining activity at 200 µM (EMSA, 200 uM test compound): 0%

CCc1ccc(Oc2c[nH]nc2-c2ccc(OCc3cnn(C)c3)cc2O)cc1 [NUCC-0176246]
remaining activity at 200 µM (EMSA, 200 uM test compound): 87%

Oc1cc(OCc2ccc(Cl)cc2)ccc1-c1n[nH]cc1Oc1ccccc1 [NUCC-0176247]
remaining activity at 200 µM (EMSA, 200 uM test compound): 18%

Cc1[nH]nc(-c2ccc(OCc3cnn(C)c3)cc2O)c1Oc1ccccc1 [NUCC-0176249]
remaining activity at 200 µM (EMSA, 200 uM test compound): 85%

Oc1cc(OCc2ccncc2)ccc1-c1n[nH]cc1Oc1ccccc1 [NUCC-0176251]
remaining activity at 200 µM (EMSA, 200 uM test compound): 62%

Cc1[nH]nc(-c2ccc(OCc3ccncc3)cc2O)c1Oc1ccccc1 [NUCC-0176252]
remaining activity at 200 µM (EMSA, 200 uM test compound): 87%

Cc1[nH]nc(-c2ccc(OCc3ccc(Cl)cc3)cc2O)c1Oc1ccccc1 [NUCC-0176253]
remaining activity at 200 µM (EMSA, 200 uM test compound): 39%

CCc1ccc(Oc2c[nH]nc2-c2ccc(OCc3ccncc3)cc2O)cc1 [NUCC-0176254]
remaining activity at 200 µM (EMSA, 200 uM test compound): 101%

Oc1cc(OCc2ccccc2)ccc1-c1n[nH]cc1Oc1ccccc1 [NUCC-0176255]
remaining activity at 200 µM (EMSA, 200 uM test compound): 11%

CCc1ccc(Oc2c[nH]nc2-c2ccc(OCC3CCCCC3)cc2O)cc1 [NUCC-0176256]
Bound DNA (%) (200uM) (EMSA, 200 uM test compound): 100%
% Fraction Bound (Table 1, concentration not printed in the table (FIG. 5 and 6 legends: 200 μM test compounds)): 9.1%

CCc1ccc(Oc2c[nH]nc2-c2ccc(OCc3ccc(F)cc3)cc2O)cc1 [NUCC-0176257]
remaining activity at 200 µM (EMSA, 200 uM test compound): 7%

CCc1ccc(Oc2c[nH]nc2-c2ccc(OCCc3ccc(F)cc3)cc2O)cc1 [NUCC-0176258]
remaining activity at 200 µM (EMSA, 200 uM test compound): 17%

Cc1[nH]nc(-c2ccc(OCc3ccc(F)cc3)cc2O)c1Oc1ccccc1 [NUCC-0176259]
remaining activity at 200 µM (EMSA, 200 uM test compound): 26%

CCc1ccc(Oc2cn(C)nc2-c2ccc(OCc3ccc(Cl)cc3)cc2O)cc1 [NUCC-0176260]
remaining activity at 200 µM (EMSA, 200 uM test compound): 113%

CCc1ccc(Oc2c[nH]nc2-c2ccc(OCCc3ccc(Cl)cc3)cc2O)cc1 [NUCC-0176261]
remaining activity at 200 µM (EMSA, 200 uM test compound): 25%

Cc1[nH]nc(-c2ccc(OCCc3ccc(Cl)cc3)cc2O)c1Oc1ccccc1 [NUCC-0176262]
remaining activity at 200 µM (EMSA, 200 uM test compound): 54%

CCc1ccc(Oc2c(-c3ccc(OCc4ccc(Cl)cc4)cc3O)n[nH]c2CC)cc1 [compound 0196282]
remaining activity at 100 µM (EMSA): 87%

COc1ccc(-c2c(-c3ccc(OCc4ccc(Cl)cc4)cc3O)n[nH]c2C(F)(F)F)cc1OC [compound 0196283]
IC50: 49 µM
remaining activity at 100 µM (EMSA): 4%

Cc1ccc(C)c(Oc2c[nH]nc2-c2ccc(OCc3ccc(Cl)cc3)cc2O)c1 [compound 0196284]
remaining activity at 100 µM (EMSA): 59%

Cc1ccc(C)c(Oc2cn(C)nc2-c2ccc(OCc3ccc(Cl)cc3)cc2O)c1 [compound 0196285]
remaining activity at 100 µM (EMSA): 118%

Cc1ccc(C)c(Oc2c[nH]nc2-c2ccc(OCc3cccc(Cl)c3)cc2O)c1 [compound 0196286]
remaining activity at 100 µM (EMSA): 65%

Cc1ccc(C)c(Oc2cn(C)nc2-c2ccc(OCc3cccc(Cl)c3)cc2O)c1 [compound 0196287]
remaining activity at 100 µM (EMSA): 115%

COc1cccc(COc2ccc(-c3n[nH]cc3Oc3cc(C)ccc3C)c(O)c2)c1 [compound 0196288]
remaining activity at 100 µM (EMSA): 81%

COc1cccc(COc2ccc(-c3nn(C)cc3Oc3cc(C)ccc3C)c(O)c2)c1 [compound 0196289]
remaining activity at 100 µM (EMSA): 136%

Cc1ccc(C)c(Oc2c[nH]nc2-c2ccc(OCc3ccc4ccccc4c3)cc2O)c1 [compound 0196290]
remaining activity at 100 µM (EMSA): 92%

Cc1ccc(C)c(Oc2cn(C)nc2-c2ccc(OCc3ccc4ccccc4c3)cc2O)c1 [compound 0196291]
remaining activity at 100 µM (EMSA): 110%

CCc1ccc(Oc2c(-c3ccc(OCc4ccc(Cl)cc4)cc3O)nn(C)c2CC)cc1 [compound 0196294]
remaining activity at 100 µM (EMSA): 106%

CCc1ccc(Oc2c(-c3ccc(OCc4cccc(Cl)c4)cc3O)n[nH]c2C(F)(F)F)cc1 [compound 0196295]
IC50: 66 µM
remaining activity at 100 µM (EMSA): 12%

CCc1ccc(Oc2c(-c3ccc(OCc4cccc(Cl)c4)cc3O)nn(C)c2C(F)(F)F)cc1 [compound 0196296]
remaining activity at 100 µM (EMSA): 73%

CCc1ccc(Oc2c(-c3ccc(OCc4cccc(OC)c4)cc3O)n[nH]c2C(F)(F)F)cc1 [compound 0196297]
remaining activity at 100 µM (EMSA): 45%

CCc1ccc(Oc2c(-c3ccc(OCc4cccc(OC)c4)cc3O)nn(C)c2C(F)(F)F)cc1 [compound 0196298]
remaining activity at 100 µM (EMSA): 98%

Cc1ccc(C)c(Oc2cn(C)nc2-c2ccc(OCCN3CCCCC3)cc2O)c1 [compound 0196299]
remaining activity at 100 µM (EMSA): 138%

Oc1cc(OCc2ccc(Cl)cc2)ccc1-c1n[nH]c(C(F)(F)F)c1Oc1cccc(F)c1 [compound 0196301]
remaining activity at 100 µM (EMSA): 43%

Cn1nc(-c2ccc(OCc3ccc(Cl)cc3)cc2O)c(Oc2cccc(F)c2)c1C(F)(F)F [compound 0196302]
remaining activity at 100 µM (EMSA): 65%

Oc1cc(OCc2ccc(Cl)cc2)ccc1-c1n[nH]cc1Oc1ccc(Cl)cc1 [compound 0196303]
remaining activity at 100 µM (EMSA): 72%

Cn1nc(-c2ccc(OCc3ccc(Cl)cc3)cc2O)c(Oc2ccccc2Cl)c1C(F)(F)F [compound 0196304]
remaining activity at 100 µM (EMSA): 13%

Cn1cc(Oc2ccccc2Cl)c(-c2ccc(OCc3ccc(Cl)cc3)cc2O)n1 [compound 0196305]
IC50: 39 µM
remaining activity at 100 µM (EMSA): 3%

COc1ccc(-c2c(-c3ccc(OCc4ccc(Cl)cc4)cc3O)noc2C(F)(F)F)cc1OC [compound 0196306]
remaining activity at 100 µM (EMSA): 71%

COc1ccc(-c2c(-c3ccc(OCc4ccc(Cl)cc4)cc3O)nn(C)c2C(F)(F)F)cc1OC [compound 0196311]
remaining activity at 100 µM (EMSA): 94%

COc1ccc(-c2c(-c3ccc(OCc4ccc(Cl)cc4)cc3O)n[nH]c2C(F)(F)F)cc1 [compound 0196312]
remaining activity at 100 µM (EMSA): 51%

Oc1cc(OCc2ccc(Cl)cc2)ccc1-c1cc(C(F)(F)F)[nH]n1 [compound 0196313]
remaining activity at 100 µM (EMSA): 1%

Cn1nc(-c2ccc(OCc3ccc(Cl)cc3)cc2O)cc1C(F)(F)F [compound 0196314]
remaining activity at 100 µM (EMSA): 76%

COc1ccc(-c2c(-c3ccc(OCc4ccc(Cl)cc4)cc3O)nn(C)c2C(F)(F)F)cc1 [compound 0196340]
remaining activity at 100 µM (EMSA): 35%

Cn1nc(-c2ccc(OCCN3CCOCC3)cc2O)c(Oc2ccccc2Cl)c1C(F)(F)F [compound 0196341]
remaining activity at 100 µM (EMSA): 154%

Oc1cc(OCc2ccc(Cl)cc2)ccc1-c1n[nH]c(C(F)(F)F)c1Oc1ccccc1Cl [compound 0196342]
remaining activity at 100 µM (EMSA): 1%

Oc1cc(OCc2ccc(Cl)cc2)ccc1-c1n[nH]cc1Oc1ccccc1Cl [compound 0196343]
remaining activity at 100 µM (EMSA): 48%

Cc1ccc(-c2c(-c3ccc(OCc4ccc(Cl)cc4)cc3O)n[nH]c2C(F)(F)F)cc1 [compound 0196344]
remaining activity at 100 µM (EMSA): 16%

Cc1ccc(-c2c[nH]nc2-c2ccc(OCc3ccc(Cl)cc3)cc2O)cc1 [compound 0196345]
remaining activity at 100 µM (EMSA): 102%

Cc1ccc(-c2cn(C)nc2-c2ccc(OCc3ccc(Cl)cc3)cc2O)cc1 [compound 0196346]
remaining activity at 100 µM (EMSA): 114%

Oc1cc(OCc2ccc(Cl)cc2)ccc1-c1n[nH]c(C(F)(F)F)c1-c1ccc(F)cc1 [compound 0196347]
remaining activity at 100 µM (EMSA): 47%
